Data as given in US12030876B2, “Aryl hydrocarbon receptor (AHR) agonists and uses thereof” (Ikena Oncology, Inc., priority 2019, dated 2024).

Target: T1, AHR (Homo sapiens, UniProt P35869)
T1 construct: endogenous in cells; host or cells: HepG2 (human), transfected with a DRE-luciferase reporter only
T1 sequence (P35869 11-848): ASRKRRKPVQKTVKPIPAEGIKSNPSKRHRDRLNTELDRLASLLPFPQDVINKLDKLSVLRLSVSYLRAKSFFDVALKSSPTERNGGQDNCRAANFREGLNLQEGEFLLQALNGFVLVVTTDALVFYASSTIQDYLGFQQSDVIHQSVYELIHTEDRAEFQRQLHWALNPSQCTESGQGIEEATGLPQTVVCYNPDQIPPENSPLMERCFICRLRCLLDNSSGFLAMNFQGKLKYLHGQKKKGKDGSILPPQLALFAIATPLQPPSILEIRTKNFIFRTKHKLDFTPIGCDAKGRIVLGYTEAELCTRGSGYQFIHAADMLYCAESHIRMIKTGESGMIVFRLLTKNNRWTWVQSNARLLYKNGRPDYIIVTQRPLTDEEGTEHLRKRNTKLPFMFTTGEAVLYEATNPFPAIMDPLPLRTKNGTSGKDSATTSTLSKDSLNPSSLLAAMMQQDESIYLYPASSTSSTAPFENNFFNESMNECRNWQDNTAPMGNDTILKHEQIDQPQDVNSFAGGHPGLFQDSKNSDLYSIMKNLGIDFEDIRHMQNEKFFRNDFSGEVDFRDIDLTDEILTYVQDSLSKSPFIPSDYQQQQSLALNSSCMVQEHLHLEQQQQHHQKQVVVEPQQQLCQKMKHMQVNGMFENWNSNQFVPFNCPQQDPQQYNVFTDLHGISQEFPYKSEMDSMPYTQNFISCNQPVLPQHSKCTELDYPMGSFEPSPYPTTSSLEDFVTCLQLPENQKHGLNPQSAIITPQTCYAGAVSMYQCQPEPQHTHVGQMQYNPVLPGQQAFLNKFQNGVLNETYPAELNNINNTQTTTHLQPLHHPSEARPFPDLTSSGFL
Test: DRE-Luciferase Reporter Assay, HepG2 (agonist)
Assay type: cell-based
Details: DRE-Luc HepG2 - Agonist: Average EC50 (μM), HepG2, Table 2
Method: DRE-Luciferase Reporter Assay
AHR binds to Dioxin Responsive Elements (DRE) upstream of genes that it activates. One measure of AHR activity is activation of a reporter gene, such as luciferase, downstream of one or multiple DRE elements. Luciferase activity reflects activation and inhibition of AHR in the cells expressing this reporter.
Murine Hepa1-6 or Hepa-1c1c7 or other murine cell line with a DRE-luciferase reporter either stably or transiently transfected are plated in media in plates (96-well, 384-well or other plates) and incubated overnight at 37 C in a CO2 incubator. Likewise, human HepG2 or other human cell line with a DRE-luciferase reporter either stably or transiently transfected are plated in media in plates (96-well, 384-well or other plates) and incubated overnight at 37 C in a CO2 incubator.
The next day, an AHR agonist compound is added. Cells are incubated for 6, 16 or 24 hours or another time point and then lysed for determination of luciferase activity as a read-out of the AHR activation. Luciferase can be measured with a commercial kit such as the Promega Luciferase kit or any kit or reagents that provide the luciferin substrate for measuring luciferase activity. The level of luciferase with only activating ligand (e.g. such as TCDD, kynurenine, ITE (2-(1H-indole-3-ylcarbonyl)-4-thiazolecarboxylic methyl ester), VAF347, BNF (beta-naphthoflavone), ICZ (6-formylindolo(3,2-b) carbazole or other AHR ligands) added is the maximum signal while the luciferase with no ligand is the minimum signal. EC50s can be determined as the concentration which activates half of the maximum luciferase activity.

EC50 [µM] | SMILES
> 1 | c1ccc(Nc2nc(-c3ccccc3)cs2)cc1 [Compound P-14]

Same assay, conditions: DRE-Luc HepG2 - Agonist: Average EC50 (μM), HepG2, Table 3

EC50 [µM] | SMILES
> 1 | O=C(O)c1cccc(Nc2nc(-c3cccc([N+](=O)[O-])c3)cs2)c1 [I-81]

Same assay, conditions: HepG2, Table 2; read-out: DRE-Luc HepG2 - Agonist: Average EC50

EC50 [µM] | SMILES
0.1 to 1 | C[N+](C)(CCO)CCOCCN(c1cccc(C(F)(F)F)c1)c1nc(-c2cccc(Cl)c2)cs1 [I-45]
> 1 | C[N+](C)(CCOCCN(c1cccc(C(F)(F)F)c1)c1nc(-c2cccc(Cl)c2)cs1)CC(=O)O [I-51]
> 1 | C[N+](C)(CCO)CCOCCN(c1ccc(C(F)(F)F)cc1)c1nc(-c2cccc(Cl)c2)cs1 [I-52]
0.1 to 1 | FC(F)(F)c1ccc(Nc2ncc(-c3ccccc3Cl)o2)cc1 [I-62]
0.1 to 1 | FC(F)(F)c1ccc(Nc2nc(-c3cccc(Cl)c3)co2)cc1 [I-63]
> 1 | FC(F)(F)c1ccc(Nc2nnc(-c3cccc(Cl)c3)o2)cc1 [I-64]
> 1 | FC(F)(F)c1ccc(Nc2nnc(-c3cccc(Cl)c3)[nH]2)cc1 [I-65]
> 1 | Oc1ccc(-c2cnc(Nc3ccc(C(F)(F)F)cc3)o2)cc1 [I-67]
> 1 | Oc1cccc(-c2cnc(Nc3ccc(C(F)(F)F)cc3)o2)c1 [I-68]
> 1 | CN(C)CCOc1cccc(-c2cnc(Nc3ccc(C(F)(F)F)cc3)o2)c1 [I-69]
> 1 | Cn1cc(-c2cccc(Cl)c2)nc1Nc1cccc(C(F)(F)F)c1 [I-70]
> 1 | Cn1c(-c2cccc(Cl)c2)cnc1Nc1cccc(C(F)(F)F)c1 [I-71]
> 1 | C[N+](C)(C)CCOc1cccc(-c2cnc(Nc3ccc(C(F)(F)F)cc3)o2)c1 [I-72]
> 1 | C[N+](C)(C)CCOc1ccc(-c2cnc(Nc3ccc(C(F)(F)F)cc3)o2)cc1 [I-73]
> 1 | CN(C)CCOc1ccc(-c2cnc(Nc3ccc(C(F)(F)F)cc3)o2)cc1 [I-74]
> 1 | Oc1ccccc1-c1cnc(Nc2ccc(C(F)(F)F)cc2)o1 [I-75]

Same assay, conditions: HepG2, Table 3; read-out: DRE-Luc HepG2 - Agonist: Average EC50

SMILES | EC50 [µM]
O=C(O)c1cc(-c2csc(Nc3cccc(C(F)(F)F)c3)n2)cc([N+](=O)[O-])c1 [I-78] | > 1
N#Cc1cc(Cl)cc(-c2csc(Nc3cccc(C(F)(F)F)c3)n2)c1 [I-80] | 0.01 to 0.1
CN(CCNC(=O)N(c1cccc(C(F)(F)F)c1)c1nc(-c2cccc(Cl)c2)cs1)CC(=O)O [I-86] | < 0.01
C[N+]1(C)CCN(C(=O)c2cccc(Nc3nc(-c4cccc([N+](=O)[O-])c4)cs3)c2)CC1 [I-88] | > 1
N#Cc1cc(C(=O)O)cc(-c2csc(Nc3cccc(C(F)(F)F)c3)n2)c1 [I-95] | > 1
O=[N+]([O-])c1cccc(-c2csc(Nc3cncc(C(F)(F)F)c3)n2)c1 [I-96] | < 0.01
C[n+]1cccc(-c2csc(N(C(=O)NCCC[N+](C)(C)C)c3cccc(C(F)(F)F)c3)n2)c1 [I-98] | 0.1 to 1
NC(=O)c1cc(-c2csc(Nc3cccc(C(F)(F)F)c3)n2)c[n+]([O-])c1 [I-99] | > 1
NC(=O)c1cc(-c2csc(Nc3cccc(C(F)(F)F)c3)n2)cc([N+](=O)[O-])c1 [I-101] | > 1
COC(=O)c1cncc(-c2csc(Nc3cccc(C(F)(F)F)c3)n2)c1 [I-102] | > 1

Second part, the compound after the results:

EC50 [µM] | SMILES
> 1 | O=C(O)c1cncc(-c2csc(Nc3cccc(C(F)(F)F)c3)n2)c1 [I-79]
> 1 | NC(=O)c1cccc(Nc2nc(-c3cccc([N+](=O)[O-])c3)cs2)c1 [I-82]
0.01 to 0.1 | O=[N+]([O-])c1cccc(-c2csc(Nc3ccc(C(F)(F)F)cc3)n2)c1 [I-84]
> 1 | O=S(=O)(O)c1cccc(-c2csc(Nc3cccc(C(F)(F)F)c3)n2)c1 [I-85]
> 1 | [O-][n+]1ccccc1-c1csc(Nc2cccc(C(F)(F)F)c2)n1 [I-94]
> 1 | O=[N+]([O-])c1cccc(-c2csc(Nc3cccc(S(=O)(=O)O)c3)n2)c1 [I-103]
> 1 | COC(=O)c1cccc(Nc2nc(-c3cccc(C#N)c3)cs2)c1 [I-104]
> 1 | NC(=O)c1cccc(-c2csc(Nc3cncc(C(F)(F)F)c3)n2)c1 [I-105]
0.1 to 1 | COC(=O)c1cccc(-c2csc(Nc3cccc(C(F)(F)F)c3)n2)c1 [I-106]
